# Like-named read-outs stand apart in the source and are kept apart here. *1 amine or outer side, *2 acyl side, *3 side chain or, on linkers, in order; H or OH if unused. Where a SMILES comes first, the peptide text is derived from it. Bridges are numbered along the chain shown (N, C = ends). Roman numbers before positions name the chains, in order. [ ]: non-standard residue; d: D form. Actinocin(9to1) = Cc1c2oc3c(C)ccc(C(=O)[*:1])c3nc-2c(C(=O)[*:2])c(N)c1=O; NMeV = CN[C@H](C(=O)O)C(C)C; Sar = CNCC(=O)O
# Experiments:
# P-gp/ABCB1 = P-gp/ABCB1 (Homo sapiens, UniProt P08183); settings: 0.01 µM, 10-120 min, 37 °C, 1 million cells, duplicate, cell homogenate UPLC-MS/MS; L-MDR1 vs LLC-PK1
# P-gp/ABCB1, sequence (P08183 whole entry): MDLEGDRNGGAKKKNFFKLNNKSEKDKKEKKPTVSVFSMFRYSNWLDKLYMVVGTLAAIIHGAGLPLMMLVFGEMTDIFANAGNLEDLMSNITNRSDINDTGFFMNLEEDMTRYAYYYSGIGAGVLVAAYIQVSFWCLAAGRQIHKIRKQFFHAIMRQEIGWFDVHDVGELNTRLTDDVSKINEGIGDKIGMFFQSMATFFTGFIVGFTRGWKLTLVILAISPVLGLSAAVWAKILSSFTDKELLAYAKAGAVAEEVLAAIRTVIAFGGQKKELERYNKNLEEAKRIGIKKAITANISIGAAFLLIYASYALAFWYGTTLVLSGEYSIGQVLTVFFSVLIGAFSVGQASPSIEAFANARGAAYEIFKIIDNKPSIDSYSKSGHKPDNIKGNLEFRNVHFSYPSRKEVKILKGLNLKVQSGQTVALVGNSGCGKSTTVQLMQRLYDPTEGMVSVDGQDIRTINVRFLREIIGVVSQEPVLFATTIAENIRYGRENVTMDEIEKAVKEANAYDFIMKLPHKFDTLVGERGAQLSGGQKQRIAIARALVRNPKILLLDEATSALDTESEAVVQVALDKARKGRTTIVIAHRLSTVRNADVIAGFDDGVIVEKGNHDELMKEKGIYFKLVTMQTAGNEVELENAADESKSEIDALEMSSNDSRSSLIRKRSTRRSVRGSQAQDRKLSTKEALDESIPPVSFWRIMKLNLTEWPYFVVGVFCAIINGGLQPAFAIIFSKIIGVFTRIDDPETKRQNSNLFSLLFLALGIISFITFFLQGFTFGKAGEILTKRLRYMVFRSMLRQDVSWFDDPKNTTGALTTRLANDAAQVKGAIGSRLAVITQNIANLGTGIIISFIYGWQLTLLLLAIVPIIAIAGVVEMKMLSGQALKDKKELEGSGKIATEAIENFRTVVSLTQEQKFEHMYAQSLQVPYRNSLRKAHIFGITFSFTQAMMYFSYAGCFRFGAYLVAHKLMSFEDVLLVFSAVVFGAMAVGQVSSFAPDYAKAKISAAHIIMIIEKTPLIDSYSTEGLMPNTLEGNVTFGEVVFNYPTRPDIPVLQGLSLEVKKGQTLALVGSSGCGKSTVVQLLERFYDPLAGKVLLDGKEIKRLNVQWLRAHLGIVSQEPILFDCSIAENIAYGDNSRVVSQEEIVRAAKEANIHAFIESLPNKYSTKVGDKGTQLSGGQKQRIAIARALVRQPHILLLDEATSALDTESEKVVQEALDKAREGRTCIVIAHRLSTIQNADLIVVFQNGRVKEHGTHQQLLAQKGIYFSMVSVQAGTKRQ
# Experimental: (§1) To confirm the P-gp substrate characteristics of actinomycin D, we conducted growth inhibition and uptake assays in a cell line over-expressing human P-gp/ABCB1 (L-MDR1 cells) in comparison to the respective parental cell line (LLC-PK1). L-MDR1 cells were kindly provided by A. H. Schinkel (The Netherlands Cancer Institute, Division of Experimental Therapy, Amsterdam, The Netherlands). The cells were cultured under standard cell culture conditions with medium M199 supplemented with 10% FCS, 2 mM glutamine, 100 U/mL penicillin, and 100 µg/mL streptomycin sulfate. The culture medium for L-MDR1 was supplemented with 0.64 µM vincristine to maintain P-gp/ABCB1 expression. One day before using the cells in the assays, both cell lines were fed with vincristine-free culture medium.
# [1] = Stability in microdialysis buffer and in solution (assay validation); assay type: physicochemical; settings: for 6-month stability in solution at 4°C, accuracy: ACN/H2O (1/1) + 0.1% FA solutions, 6 months; for 6-month stability in solution at 4°C, accuracy / 2 days buffer stability at RT, accuracy: N = 3; for 2 days buffer stability at RT, accuracy: microdialysate buffer (1% BSA Ringer)
# Experimental: Plasma calibration samples were prepared by spiking blank plasma (75 µL) with 25 µL of the calibration sub-solution, yielding plasma concentrations of 0.05, 0.2, 0.5, 1, 3, 10, 30, and 100 ng/mL. Plasma QC samples were prepared accordingly at concentrations of 0.05, 0.15, 3, and 60 ng/mL. Brain tissue homogenate calibration samples were prepared by spiking brain tissue homogenate (75 µL), which was prepared at 100 mg tissue per mL of 5% aqueous ACN containing 0.5% Triton X, with 25 µL of the calibration sub-solution, yielding concentrations corresponding to 0.5, 2, 5, 10, 30, 100, 300, and 1000 ng/g. Brain tissue homogenate QC samples were prepared accordingly, at corresponding concentrations of 0.5, 1.5, 30, and 600 ng/g. Solutions were kept at 4 °C for up to 6 months.
# in vivo = settings: female, mouse, plasma, iv, 0.5 mg/kg; for level at 6 h / level at 22 h: NSG (NOD.Cg-Prkdc^scid Il2rg^tm1Wjl/SzJ), plasma actinomycin D concentration, incurred sample reanalysis table
# Experimental: (§2) The experiments were carried out in accordance with the European regulations for care and use of laboratory animals (2010/63/EU) under the German license number G-187/18 and the internal reference number DKFZ374, approved by the responsible regional council (Regierungspräsidium Karlsruhe, Germany). Female 8-week-old NSG mice (NOD.Cg-Prkdc^scid Il2rg^tm1Wjl/SzJ-NOD-SCID gamma-mice) with a weight of approximately 25 g were used for the studies. […] Mice received analgesia (metamizole) and anesthesia with isoflurane during surgery. […] Therefore, we chose to take blood samples 0.75, 6, and 22 h after intravenous bolus injection into the tail vein for the assay’s feasibility pharmacokinetic experiment. […] Full blood samples were transferred into citrate tubes (Sarstedt, Germany) and centrifuged at 1600× g for 10 min to generate plasma samples, which were stored at −80 °C until analysis. […] For validation of the UPLC-MS/MS quantification, blank plasma from 6 naïve mice was used and blank brain tissue was obtained from 2 unexposed mice.
# (§3) For protein precipitation of plasma microsamples, an excess of ACN (50 µL) with 0.1% FA containing the IS was applied to an Impact® 96-well protein precipitation plate (Phenomenex, Torrance, CA, USA). Subsequently, 20 µL of the plasma samples were added and the plates sealed and shaken for 1 min. […] For protein depletion, samples were filtered into a 96-well collection plate (Waters, Milford, MA, USA) by applying positive pressure with a 96-well positive pressure unit (Waters, Milford, MA, USA) operated with air overpressure of 5 psi. After addition of 40 µL of water containing 0.1% FA, the collection plates were sealed, shaken, and extracts injected onto the UPLC system.
# [2] = N = 3, UPLC-MS/MS; for Freeze-and-thaw stability, accuracy: plasma, three freeze-and-thaw cycles separated by at least 24 h
# Experimental: Accuracy was calculated as the percentage of the ratio of the mean determined concentration in individual analytical runs and the nominal value. Precision was expressed in percent and is defined as the coefficient of variation of the measured sample concentrations at each QC level. Three validation runs were analyzed, each containing eight calibration samples in duplicate determination and four QC samples at LLOQ, and low, mid, and high QC concentration in six replicates. Selectivity was evaluated using blank plasma samples from six naïve mice and brain tissue homogenates from two mice. Extraction recovery was calculated from peak areas after extraction from the QC samples divided by the respective peak areas obtained from blank plasma spiked after extraction. Matrix effects were evaluated by comparison of the peak areas of the blank plasma samples spiked after extraction with the respective peak areas of matrix-free UPLC solvent samples spiked with the identical amount. Stability of the analyte was tested in three freeze-and-thaw cycles separated by at least 24 h, in plasma samples stored for 1 month at −25 °C, in microdialysate stored at room temperature for 2 d, and in extracts left in the autosampler for 24 h. Additionally, an incurred sample reanalysis was performed for all plasma samples with sufficient volume for reanalysis.
# P-gp = settings: cited from earlier work
# [3] = Experimental: as §1
# The assays were performed in quadruplicate, as described previously, using ten concentrations of actinomycin D from 0.0005–10 µM in octuplets.
# Calibration curves were determined with 1/x^2 weighted linear regression using peak area ratios of the analyte to IS. This calculation was performed using the software TargetLynx V4.2 (Waters, Milford, MA, USA). Plasma pharmacokinetics were determined with the software Kinetica (v 5.0; Thermo Fisher Scientific, Waltham, MA, USA). Standard calculations were performed using Microsoft Office Excel 2010 ([…]). Concentration–response curves and IC50 values were calculated by GraphPad Prism version 9.0.0 (GraphPad Software Inc., La Jolla, CA, USA) according to a sigmoid Emax model.
# [4] = rapid equilibrium dialysis, 12 h, 37 °C
# Experimental: To determine the previously unknown unbound fraction of actinomycin D in plasma and brain tissue homogenate, we performed rapid equilibrium dialysis (RED) in duplicate. For this, samples were spiked with drug solutions that were prepared in plasma or brain tissue homogenate to obtain minimally diluted samples (30 ng/mL for plasma and 30 ng/g for brain tissue). The free actinomycin D tissue fraction was also quantified in a pooled sample of brain tissue homogenates from the three mice euthanized 2 h after dosing. Determinations were performed on a RED apparatus (ThermoFisher Scientific, Waltham, MA, USA) according to the manufacturer´s instructions under gentle agitation for 12 h at 37 °C.
# [5] = female NSG mice, 0.5 mg/kg i.v. bolus, estimates; for Cmax: plasma at 0.75, 6, 22 h, UPLC-MS/MS; for t1/2 (half-life): plasma up to 22 h; for AUC (extrapolated to infinity): plasma
# Experimental: as §2, §3
# [6] = Non-specific binding to microdialysis equipment; assay type: physicochemical; settings: in vitro; polypropylene sampling tubes; reduced by BSA ≥1% in Ringer solution
# Experimental: In preparation of the cerebral microdialysis, we first investigated the adsorption and recovery characteristics of the microdialysis probes, tubing, and pump system, to test the validity of the microdialysis determinations. […] In order to reduce nonspecific binding, BSA supplement of the microdialysis buffer was tested in different concentrations, ranging from 0.1 to 2%. […] Therefore, 1% BSA in Ringer solution was used for all microdialysis experiments.
smiles,measurement,setting,value
"Cc1c2oc3c(C)ccc(C(=O)N[C@@H]4C(=O)N[C@H](C(C)C)C(=O)N5CCC[C@H]5C(=O)N(C)CC(=O)N(C)[C@@H](C(C)C)C(=O)O[C@@H]4C)c3nc-2c(C(=O)N[C@@H]2C(=O)N[C@H](C(C)C)C(=O)N3CCC[C@H]3C(=O)N(C)CC(=O)N(C)[C@@H](C(C)C)C(=O)O[C@@H]2C)c(N)c1=O [actinomycin D, Actinomycin D] (I: T[dV]P[Sar][NMeV] / II: T[dV]P[Sar][NMeV]; ester I:1-I:C, II:1-II:C; linker I:N-II:N via Actinocin(9to1))",accumulation in P-gp over-expressing cell line versus parental cell line,P-gp/ABCB1,lower accumulation
same,stability in the microdialysis buffer,"[1]; 1% BSA in Ringer solution, 2 d, room temperature",stable
same,"6-month stability in solution at 4°C, accuracy",[1]; High QC 60.0 ng/mL,87.2%
same,"6-month stability in solution at 4°C, accuracy",[1]; Low QC 0.150 ng/mL,88.3%
same,"6-month stability in solution at 4°C, accuracy",[1]; Medium QC 3.00 ng/mL,86.4%
same,"2 days buffer stability at RT, accuracy","[1]; room temperature, High QC 60.0 ng/mL",104.7%
same,"2 days buffer stability at RT, accuracy","[1]; room temperature, Low QC 0.150 ng/mL",108.7%
same,"2 days buffer stability at RT, accuracy","[1]; room temperature, Medium QC 3.00 ng/mL",113.5%
same,time stable in solution,[1]; stored solutions kept at 4 °C,at least 6 months
same,level at 6 h,"in vivo; incurred reanalysis, mouse # 6, sampling 6 h",1.17 ng/mL
same,level at 22 h,"in vivo; incurred reanalysis, mouse # 6, sampling 22 h",1.16 ng/mL
same,level at 6 h,"in vivo; incurred reanalysis, mouse # 7, sampling 6 h",5.23 ng/mL
same,level at 22 h,"in vivo; incurred reanalysis, mouse # 7, sampling 22 h",5.17 ng/mL
same,level at 6 h,"in vivo; original analysis, mouse # 6, sampling 6 h",1.31 ng/mL
same,level at 22 h,"in vivo; original analysis, mouse # 6, sampling 22 h",1.36 ng/mL
same,level at 6 h,"in vivo; original analysis, mouse # 7, sampling 6 h",5.51 ng/mL
same,level at 22 h,"in vivo; original analysis, mouse # 7, sampling 22 h",4.48 ng/mL
same,AUC(0-inf),in vivo; NSG,128 ± 31 ng·h/mL
same,Cmax,in vivo; NSG,15.8 ± 5.1 ng/mL
same,Vd,in vivo; NSG,1.1 ± 0.35 L
same,half-life,in vivo; NSG,6.04 ± 0.75 h
same,"1-month plasma stability at -25 °C, accuracy",[2]; High QC 60.0 ng/mL,100.7%
same,"1-month plasma stability at -25 °C, accuracy",[2]; Low QC 0.150 ng/mL,95.6%
same,"1-month plasma stability at -25 °C, accuracy",[2]; Medium QC 3.00 ng/mL,98.3%
same,"Freeze-and-thaw stability, accuracy",[2]; High QC 60.0 ng/mL,87.6%
same,"Freeze-and-thaw stability, accuracy",[2]; Low QC 0.150 ng/mL,93.6%
same,"Freeze-and-thaw stability, accuracy",[2]; Medium QC 3.00 ng/mL,92.0%
same,brain exposure in P-gp knockout mice relative to wildtype mice,P-gp,2.3 fold
same,IC50,[3],2400 ± 600 nM
same,free fraction in spiked brain tissue homogenate,"[4]; minimally diluted homogenate spiked at 30 ng/g, duplicate, UPLC-MS/MS",3.4%
same,free fraction in brain tissue homogenate of dosed mice,"[4]; pooled homogenates of three mice 2 h after 0.5 mg/kg i.v., estimated from response values below LLOQ",< 3%
same,Cmax,[5]; mouse 1,22.6 ng/mL
same,Cmax,[5]; mouse 2,14.6 ng/mL
same,Cmax,[5]; mouse 3,10.3 ng/mL
same,t1/2 (half-life),[5]; mouse 1,5.07 h
same,t1/2 (half-life),[5]; mouse 2,6.14 h
same,t1/2 (half-life),[5]; mouse 3,6.90 h
same,AUC (extrapolated to infinity),[5]; mouse 1,171 ng·h/mL
same,AUC (extrapolated to infinity),[5]; mouse 2,111 ng·h/mL
same,AUC (extrapolated to infinity),[5]; mouse 3,101 ng·h/mL
same,Cl (clearance),[5]; mouse 1,1.22 mL/min
same,Vss (volume of distribution),[5]; mouse 1,0.53 L
same,Cl (clearance),[5]; mouse 2,1.87 mL/min
same,Vss (volume of distribution),[5]; mouse 2,0.98 L
same,Cl (clearance),[5]; mouse 3,2.06 mL/min
same,Vss (volume of distribution),[5]; mouse 3,1.23 L
same,non-specific binding to microdialysis equipment,[6],substantially adhered

# Reference: article PMC8466300, “Investigating the Central Nervous System Disposition of Actinomycin D: Implementation and Evaluation of Cerebral Microdialysis and Brain Tissue Measurements Supported by UPLC-MS/MS Quantification” (Pharmaceutics, 2021)
